The compounds below were run against recombinant Plk1 (Homo sapiens, UniProt P53350) (assay: In Vitro Plk1 Enzyme Assay (SPA, GST-Cdc25C phosphorylation)). Settings: ATP 64 nM, 90 minutes, read-out: IC50 (Plk1 enzyme inhibition).
recombinant Plk1, sequence (P53350 whole entry): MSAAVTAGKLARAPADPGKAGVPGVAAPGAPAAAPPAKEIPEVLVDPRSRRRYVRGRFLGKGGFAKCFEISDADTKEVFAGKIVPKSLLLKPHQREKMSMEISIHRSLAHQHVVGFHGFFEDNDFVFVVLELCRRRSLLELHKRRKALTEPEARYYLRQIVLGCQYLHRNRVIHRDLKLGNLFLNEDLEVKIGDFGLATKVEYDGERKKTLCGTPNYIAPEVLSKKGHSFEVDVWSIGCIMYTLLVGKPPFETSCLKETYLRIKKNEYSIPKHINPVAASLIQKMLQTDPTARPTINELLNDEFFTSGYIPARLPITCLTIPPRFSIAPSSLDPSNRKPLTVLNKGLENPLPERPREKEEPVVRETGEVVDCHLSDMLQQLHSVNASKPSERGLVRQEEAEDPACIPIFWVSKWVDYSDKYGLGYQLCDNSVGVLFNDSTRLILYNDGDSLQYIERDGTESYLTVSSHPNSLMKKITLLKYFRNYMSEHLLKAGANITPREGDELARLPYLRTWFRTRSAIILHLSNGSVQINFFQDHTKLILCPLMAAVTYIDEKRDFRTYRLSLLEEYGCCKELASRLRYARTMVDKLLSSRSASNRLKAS
Assay type: biochemical
With CNC(=O)c1ccc(Nc2ncc3c(n2)N(C2CCCC2)CCC(=O)N3C)cc1 [Example 102, 4-[(6-cyclopentyl-2-methyl-3-oxo-2,6,8,10-tetrazabicyclo[5.4.0]undeca-8,10,12-trien-9-yl)amino]-N-methyl-benzamide] the IC50 was under 0.3 µM. Compound COc1cc(C(=O)O)ccc1Nc1ncc2c(n1)N(C1CCCC1)CCC(=O)N2C [Example 111, 4-[(2-cyclopentyl-6-methyl-5-oxo-2,6,9,11-tetrazabicyclo[5.4.0]undeca-7,9,11-trien-10-yl)amino]-3-methoxy-benzoic acid] has an IC50 of under 0.3 µM. For CN1C(=O)CCN(C2CCCC2)c2nc(Nc3ccc(C#N)c(C(F)(F)F)c3)ncc21 [Example 116, 4-[(6-cyclopentyl-2-methyl-3-oxo-2,6,8,10-tetrazabicyclo[5.4.0]undeca-8,10,12-trien-9-yl)amino]-2-(trifluoromethyl)benzonitrile], the IC50 was under 100 µM. For CN1C(=O)CCN(C2CCCC2)c2nc(Nc3ccc(S(=O)(=O)NCCO)cc3)ncc21 [Example 117, 4-[(6-cyclopentyl-2-methyl-3-oxo-2,6,8,10-tetrazabicyclo[5.4.0]undeca-8,10,12-trien-9-yl)amino]-N-(2-hydroxyethyl)benzenesulfonamide], the IC50 was under 100 µM. Work on CN(C)CCOc1ccc(Nc2ncc3c(n2)N(C2CCCC2)CCC(=O)N3C)cc1 [Example 118, 6-cyclopentyl-9-[[4-(2-dimethylaminoethoxy)phenyl]amino]-2-methyl-2,6,8,10-tetrazabicyclo[5.4.0]undeca-8,10,12-trien-3-one] yielded an IC50 of under 100 µM. Compound COc1ccc(Nc2ncc3c(n2)N(C2CCCC2)CCC(=O)N3C)cc1 [Example 120, 6-cyclopentyl-9-[(4-methoxyphenyl)amino]-2-methyl-2,6,8,10-tetrazabicyclo[5.4.0]undeca-8,10,12-trien-3-one] has an IC50 of under 100 µM. CN1C(=O)CCN(C2CCCC2)c2nc(Nc3ccc(N4CCOCC4)cc3)ncc21 [Example 121, 6-cyclopentyl-2-methyl-9-[(4-morpholin-4-ylphenyl)amino]-2,6,8,10-tetrazabicyclo[5.4.0]undeca-8,10,12-trien-3-one] was tested, and the IC50 was under 100 µM. COc1cc(Nc2ncc3c(n2)N(C2CCCC2)CCC(=O)N3C)cc(OC)c1OC [Example 129, 6-cyclopentyl-2-methyl-9-[(3,4,5-trimethoxyphenyl)amino]-2,6,8,10-tetrazabicyclo[5.4.0]undeca-8,10,12-trien-3-one] gave an IC50 of under 1 µM. Work on CN1C(=O)CCN(C2CCCC2)c2nc(Nc3ccc(S(=O)(=O)N4CCCCC4)cc3)ncc21 [Example 134, 6-cyclopentyl-2-methyl-9-[[4-(1-piperidylsulfonyl)phenyl]amino]-2,6,8,10-tetrazabicyclo[5.4.0]undeca-8,10,12-trien-3-one] yielded an IC50 of under 100 µM. For CN1C(=O)CCN(C2CCCC2)c2nc(Nc3cccc(CNC(=O)OC(C)(C)C)c3)ncc21 [Example 136, tert-butyl N-[[3-[(6-cyclopentyl-2-methyl-3-oxo-2,6,8,10-tetrazabicyclo[5.4.0]undeca-8,10,12-trien-9-yl)amino]phenyl]methyl]carbamate], the IC50 was under 100 µM. CN1C(=O)c2cccc(Nc3ncc4c(n3)N(C3CCCC3)CCC(=O)N4C)c2C1=O [Example 137, 4-[(6-cyclopentyl-2-methyl-3-oxo-2,6,8,10-tetrazabicyclo[5.4.0]undeca-8,10,12-trien-9-yl)amino]-2-methyl-isoindole-1,3-dione] was tested, and the IC50 was under 100 µM. COc1ccccc1Nc1ncc2c(n1)N(C1CCCC1)CCC(=O)N2C [Example 139, 6-cyclopentyl-9-[(2-methoxyphenyl)amino]-2-methyl-2,6,8,10-tetrazabicyclo[5.4.0]undeca-8,10,12-trien-3-one] was tested, and the IC50 was under 1 µM. Work on CCOc1ccccc1Nc1ncc2c(n1)N(C1CCCC1)CCC(=O)N2C [Example 140, 6-cyclopentyl-9-[(2-ethoxyphenyl)amino]-2-methyl-2,6,8,10-tetrazabicyclo[5.4.0]undeca-8,10,12-trien-3-one] yielded an IC50 of under 100 µM. In the case of CSc1ccccc1Nc1ncc2c(n1)N(C1CCCC1)CCC(=O)N2C [Example 141, 6-cyclopentyl-2-methyl-9-[(2-methylsulfanylphenyl)amino]-2,6,8,10-tetrazabicyclo[5.4.0]undeca-8,10,12-trien-3-one], the IC50 is reported as under 100 µM. For CN1C(=O)CCN(C2CCCC2)c2nc(Nc3ccccc3O)ncc21 [Example 142, 6-cyclopentyl-9-[(2-hydroxyphenyl)amino]-2-methyl-2,6,8,10-tetrazabicyclo[5.4.0]undeca-8,10,12-trien-3-one], the IC50 was under 0.3 µM. With CN1C(=O)CCN(C2CCCC2)c2nc(Nc3ccccc3C(=O)c3ccccc3)ncc21 [Example 144, 9-[(2-benzoylphenyl)amino]-6-cyclopentyl-2-methyl-2,6,8,10-tetrazabicyclo[5.4.0]undeca-8,10,12-trien-3-one] the IC50 was under 100 µM. In the case of CN1C(=O)CCN(C2CCCC2)c2nc(Nc3ccccc3S(N)(=O)=O)ncc21 [Example 145, 2-[(6-cyclopentyl-2-methyl-3-oxo-2,6,8,10-tetrazabicyclo[5.4.0]undeca-8,10,12-trien-9-yl)amino]benzenesulfonamide], the IC50 is reported as under 100 µM. CN1C(=O)CCN(C2CCCC2)c2nc(Nc3ccccc3Oc3ccccc3)ncc21 [Example 146, 6-cyclopentyl-2-methyl-9-[(2-phenoxyphenyl)amino]-2,6,8,10-tetrazabicyclo[5.4.0]undeca-8,10,12-trien-3-one] was tested, and the IC50 was under 100 µM. In the case of CN1C(=O)CCN(C2CCCC2)c2nc(Nc3ccccc3Br)ncc21 [Example 147, 9-[(2-bromophenyl)amino]-6-cyclopentyl-2-methyl-2,6,8,10-tetrazabicyclo[5.4.0]undeca-8,10,12-trien-3-one], the IC50 is reported as under 100 µM. Compound CN1C(=O)CCN(C2CCCC2)c2nc(Nc3ccccc3-c3ccccc3)ncc21 [Example 148, 6-cyclopentyl-2-methyl-9-[(2-phenylphenyl)amino]-2,6,8,10-tetrazabicyclo[5.4.0]undeca-8,10,12-trien-3-one] has an IC50 of under 100 µM. With CN1C(=O)CCN(C2CCCC2)c2nc(Nc3ccccc3S(C)(=O)=O)ncc21 [Example 149, 6-cyclopentyl-2-methyl-9-[(2-methylsulfonylphenyl)amino]-2,6,8,10-tetrazabicyclo[5.4.0]undeca-8,10,12-trien-3-one] the IC50 was under 100 µM. Compound CC(C)c1ccccc1Nc1ncc2c(n1)N(C1CCCC1)CCC(=O)N2C [Example 150, 6-cyclopentyl-2-methyl-9-[(2-propan-2-ylphenyl)amino]-2,6,8,10-tetrazabicyclo[5.4.0]undeca-8,10,12-trien-3-one] has an IC50 of under 1 µM. Compound CCCCc1ccccc1Nc1ncc2c(n1)N(C1CCCC1)CCC(=O)N2C [Example 151, 9-[(2-butylphenyl)amino]-6-cyclopentyl-2-methyl-2,6,8,10-tetrazabicyclo[5.4.0]undeca-8,10,12-trien-3-one] has an IC50 of under 100 µM. CN1C(=O)CCN(C2CCCC2)c2nc(Nc3ccccc3Oc3ccc(C(C)(C)C)cc3)ncc21 [Example 153, 6-cyclopentyl-2-methyl-9-[[2-(4-tert-butylphenoxy)phenyl]amino]-2,6,8,10-tetrazabicyclo[5.4.0]undeca-8,10,12-trien-3-one] showed an IC50 of under 100 µM. Compound CCNS(=O)(=O)c1ccccc1Nc1ncc2c(n1)N(C1CCCC1)CCC(=O)N2C [Example 154, 2-[(6-cyclopentyl-2-methyl-3-oxo-2,6,8,10-tetrazabicyclo[5.4.0]undeca-8,10,12-trien-9-yl)amino]-N-ethyl-benzenesulfonamide] has an IC50 of under 100 µM.

Source: patent publication US7709471B2, “Compounds” (AstraZeneca AB, priority 2006, dated 2010)
